Laboratory results as given in ChEMBL document CHEMBL4033647, “Novel coumarin- and quinolinone-based polycycles as cell division cycle 25-A and -C phosphatases inhibitors induce proliferation arrest and apoptosis in cancer cells” (Eur J Med Chem, 2017).
The source made the active and inactive calls. The rule behind the calls is not given here.

Experiments:
[1] = target: T1, M-phase inducer phosphatase 1 (Homo sapiens, UniProt P30304); assay: Inhibition of recombinant human full length GST-tagged CDC25A expressed in Escherichia coli BL21-DE3 pLysS using 3-O-methylfluorescein phosphate as substrate after 2 hrs by fluorimetric analysis
T1 sequence (P30304 whole entry): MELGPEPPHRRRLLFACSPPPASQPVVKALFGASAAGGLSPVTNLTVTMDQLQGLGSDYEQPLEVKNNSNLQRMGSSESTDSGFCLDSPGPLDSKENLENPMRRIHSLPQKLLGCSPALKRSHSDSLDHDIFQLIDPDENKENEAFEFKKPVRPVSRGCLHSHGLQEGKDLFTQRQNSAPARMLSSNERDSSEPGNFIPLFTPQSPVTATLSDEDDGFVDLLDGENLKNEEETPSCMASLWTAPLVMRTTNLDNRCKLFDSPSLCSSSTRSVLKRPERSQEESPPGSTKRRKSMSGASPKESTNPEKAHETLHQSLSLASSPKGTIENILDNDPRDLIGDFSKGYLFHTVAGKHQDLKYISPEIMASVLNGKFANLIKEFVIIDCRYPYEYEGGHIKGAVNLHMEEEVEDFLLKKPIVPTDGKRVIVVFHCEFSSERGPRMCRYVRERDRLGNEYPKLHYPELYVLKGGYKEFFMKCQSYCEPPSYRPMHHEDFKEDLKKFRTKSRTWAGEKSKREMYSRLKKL

[2] = target: T2, M-phase inducer phosphatase 3 (Homo sapiens, UniProt P30307); assay: Inhibition of recombinant human full length GST-tagged CDC25C expressed in Escherichia coli BL21-DE3 pLysS using 3-O-methylfluorescein phosphate as substrate after 2 hrs by fluorimetric analysis
T2 sequence (P30307 whole entry): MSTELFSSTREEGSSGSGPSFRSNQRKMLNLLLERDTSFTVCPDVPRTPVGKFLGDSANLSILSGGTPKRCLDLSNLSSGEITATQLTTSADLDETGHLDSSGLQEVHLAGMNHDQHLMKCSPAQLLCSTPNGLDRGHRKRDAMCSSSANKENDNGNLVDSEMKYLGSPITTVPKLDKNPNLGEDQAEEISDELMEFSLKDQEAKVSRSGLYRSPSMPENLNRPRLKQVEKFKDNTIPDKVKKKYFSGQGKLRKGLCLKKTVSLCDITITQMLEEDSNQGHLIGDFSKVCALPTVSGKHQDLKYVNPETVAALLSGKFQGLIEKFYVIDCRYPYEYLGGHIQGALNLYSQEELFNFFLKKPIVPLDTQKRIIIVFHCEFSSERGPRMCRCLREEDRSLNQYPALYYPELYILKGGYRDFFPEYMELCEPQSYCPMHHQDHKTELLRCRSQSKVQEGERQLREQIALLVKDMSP

A549 = assay: Cytotoxicity against human A549 cells assessed as reduction in cell viability after 72 hrs by MTT assay; assay type: functional, cell-based; details: A549, 72 h
MCF7 = assay: Cytotoxicity against human MCF7 cells assessed as reduction in cell viability after 72 hrs by MTT assay; assay type: functional, cell-based; details: MCF7, 72 h
PC-3 = assay: Cytotoxicity against human PC3 cells assessed as reduction in cell viability after 72 hrs by MTT assay; assay type: functional, cell-based; details: PC-3, 72 h
[3] = Cytotoxicity against human U373n cells assessed as reduction in cell viability after 72 hrs by MTT assay; assay type: functional, cell-based
Hs 683 = assay: Cytotoxicity against human Hs683 cells assessed as reduction in cell viability after 72 hrs by MTT assay; assay type: functional, cell-based; details: Hs 683, 72 h
SK-MEL-28 = assay: Cytotoxicity against human SK-MEL-28 cells assessed as reduction in cell viability after 72 hrs by MTT assay; assay type: functional, cell-based; details: SK-MEL-28, 72 h
Homo sapiens = species: Homo sapiens; assay: Selectivity ratio of IC50 for recombinant human full length GST-tagged CDC25A expressed in Escherichia coli BL21-DE3 pLysS to IC50 for recombinant human full length GST-tagged CDC25C expressed in Escherichia coli BL21-DE3 pLysS
A-431 [4] = assay: Decrease in CDC25C protein expression level in human A431 cell extract at 50 uM after 24 hrs by Western blot analysis; assay type: functional, cell-based
A-431 [5] = assay: Cytotoxicity against human A431 cells assessed as reduction in cell viability after 24 hrs by MTT assay; assay type: functional, cell-based; details: A-431, 24 h
A-431 [6] = assay: Cell cycle arrest in human A431 cells assessed as accumulation at G1 phase at 10 uM after 24 hrs by propidium iodide staining based flow cytometric analysis (reference value: 53.04%); assay type: functional
A-431 [7] = assay: Cell cycle arrest in human A431 cells assessed as accumulation at G1 phase at 50 uM after 24 hrs by propidium iodide staining based flow cytometric analysis (reference value: 53.04%); assay type: functional
A-431 [8] = assay: Cell cycle arrest in human A431 cells assessed as accumulation at S phase at 10 uM after 24 hrs by propidium iodide staining based flow cytometric analysis (reference value: 17.33%); assay type: functional
A-431 [9] = assay: Cell cycle arrest in human A431 cells assessed as accumulation at S phase at 50 uM after 24 hrs by propidium iodide staining based flow cytometric analysis (reference value: 17.33%); assay type: functional
A-431 [10] = assay: Cell cycle arrest in human A431 cells assessed as accumulation at G2/M phase at 10 uM after 24 hrs by propidium iodide staining based flow cytometric analysis (reference value: 26.23%); assay type: functional
A-431 [11] = assay: Cell cycle arrest in human A431 cells assessed as accumulation at G2/M phase at 50 uM after 24 hrs by propidium iodide staining based flow cytometric analysis (reference value: 26.23%); assay type: functional
A-431 [12] = assay: Cell cycle arrest in human A431 cells assessed as accumulation at subG1 phase at 10 uM after 24 hrs by propidium iodide staining based flow cytometric analysis (reference value: 3.40%); assay type: functional
A-431 [13] = assay: Cell cycle arrest in human A431 cells assessed as accumulation at subG1 phase at 50 uM after 24 hrs by propidium iodide staining based flow cytometric analysis (reference value: 3.40%); assay type: functional
A-431 [14] = assay: Effect on CDC25C splice variant protein expression in human A431 cell extract at 50 uM after 24 hrs by Western blot analysis; assay type: functional, cell-based
A-431 [15] = assay: Induction of apoptosis in human A431 cells assessed as caspase-3 cleavage at 10 to 50 uM after 24 hrs by Western blot analysis; assay type: functional, cell-based
[16] = target: T3, M-phase inducer phosphatase 3 (Homo sapiens) (UniProt P30307); details: 10 to 50 uM
T3 sequence (whole entry): T2 sequence (P30307 whole entry)
Description: Inhibition of CDC25C in human A431 cells assessed as increase in CDK-mediated phosphorylation of histone H3 at Ser10 residues at 10 to 50 uM after 24 hrs by Western blot analysis

Structure (SMILES) | IC50 [1] [µM] | IC50 [2] [µM] | IC50 (A549) [µM] | IC50 (MCF7) [µM] | IC50 (PC-3) [µM] | IC50 [3] [µM] | IC50 (Hs 683) [µM] | IC50 (SK-MEL-28) [µM] | other results
O=C1C=CC(=O)c2c1ccc1c2c(=O)oc2cc(F)ccc21 | 2.19 | 0.69 | 1 | 11 | 36 | 7 | 4 | 18 | –
O=C1C=CC(=O)c2c1ccc1c2c(=O)oc2ccc(Cl)cc21 | 2.57 | 1.44 | 25 | 13 | 19 | 12 | 6 | 33 | –
O=C1C=CC(=O)c2c1ccc1c2c(=O)oc2cc(O)ccc21 | 6.6 | 0.8 | 19 | 9 | 27 | 9 | 11 | 29 | –
CCN(CC)c1ccc2c(c1)oc(=O)c1c3c(ccc12)C(=O)C=CC3=O | 1.2 | 0.3 | 98 | 58 | 45 | 59 | 98 | 72 | –
O=C1C=CC(=O)c2c1ccc1c2c(=O)[nH]c2ccc(F)cc21 | 3.37 | 4.67 | 4 | 4 | 3 | 2 | 3 | 3 | –
O=C1C=CC(=O)c2c1ccc1c2c(=O)[nH]c2cc(Cl)ccc21 | 4.04 | 5.5 | 0.13 | 2 | 4 | 1 | 1 | 5 | –
O=C1C(SCCO)=C(SCCO)C(=O)c2ccccc21 | – | – | 1.45 | 0.96 | 3.4 | 1.85 | 2.8 | 2.3 | –
O=C1C=CC(=O)c2c1ccc1c2c(=O)[nH]c2c3ccccc3ccc12 | 3.23 | 4.37 | 45 | 30 | 42 | 42 | 30 | 72 | –
O=C1C=CC(=O)c2c1ccc1c2c(=O)oc2c3ccccc3ccc12 | 1.5 | 0.1 | 70 | 7 | 75 | 55 | 4 | > 100 | Ratio IC50 (Homo sapiens): 15
O=C1C=CC(=O)c2c1ccc1c2c(=O)oc2ccc(F)cc21 | 3.5 | 0.4 | 17 | 3 | 43 | 36 | 19 | 40 | Ratio IC50 (Homo sapiens): 8.75
O=C1C=CC(=O)c2c1ccc1c2c(=O)oc2cc(OCc3ccccc3)ccc21 | 3.11 | 7.12 | > 100 | > 100 | > 100 | > 100 | > 100 | > 100 | –
Cn1c(=O)c2c3c(ccc2c2ccccc21)C(=O)C=CC3=O | 13 | 14.9 | 68 | 34 | 32 | 41 | 67 | 68 | –
O=C1C=CC(=O)c2c1ccc1c2c(=O)[nH]c2ccccc21 | 7.73 | 3.64 | 1.8 | 0.9 | 0.9 | 2.7 | 2.8 | 1.5 | Activity (A-431 [4]): Active; Ratio IC50 (Homo sapiens): 2; IC50 (A-431 [5]): 8.2 µM; Activity (A-431 [6]): 57.01%; Activity (A-431 [7]): 53.93%; Activity (A-431 [8]): 11.9%; Activity (A-431 [9]): 6.98%; Activity (A-431 [10]): 24.83%; Activity (A-431 [11]): 26.28%; Activity (A-431 [12]): 6.26%; Activity (A-431 [13]): 12.81%; Activity (A-431 [14]): Active; Activity (A-431 [15]): inactive; inhibition [16]: Active
O=C1C=CC(=O)c2c1ccc1c2c(=O)[nH]c2cc(F)ccc21 | 2.85 | 4.46 | 18 | 27 | 4 | 3 | 9 | 8 | –
COc1ccc2c(c1)oc(=O)c1c3c(ccc12)C(=O)C=CC3=O | 2.88 | 0.98 | 30 | 9 | 31 | 16 | 24 | 31 | –
Cc1ccc2c(c1)oc(=O)c1c3c(ccc12)C(=O)C=CC3=O | 2.9 | 1 | > 100 | 82 | > 100 | 98 | > 100 | > 100 | –
